Read-outs that look alike come from different tables or passages of the source.

In data set [1] the test system is CV-1 cells. As to the kind of experiment: Toxicity in CV-1 cells.
Data set [2] in a line: Solubility in water. Format: physicochemical.
For data set [3] the following is noted: for ALT / AST / AlkPhos / BUN / Bilirubin / CPK / Creatinine / GGT / Lipase / Platelets / RBC / WBC: rats. Here is the method: Toxicity studies were later performed with larger numbers of animals (n=18 in the treatment group) using a high-dose at the upper end of the therapeutic range (PA-PEG24 (SEQ ID NO: 21) at 40 mg [160 mg/kg] i.v.). Eight animals were sacrificed at day 3, and ten were sacrificed at day 14.

The conditions of data set [4]: 60 mg [240 mg/kg] i.v.; for ALT / AST / AlkPhos / BUN / Bilirubin / CPK / Creatinine / GGT / Lipase / Platelets / RBC / WBC: rats, n = 6.
Data set [5] deals with HSV-1. The experiment in a line: HSV-1-GFP infection of CV-1 cells, flow cytometry. As to conditions: added to CV-1 cells before infection; 16 hours. Format: cell-based, Herpes Simplex Virus Type 1. Here is the method: CV-1 cells were infected with HSV-1-GFP for 16 hours. Post-infection, CV-1 cells were detected by flow cytometry (FIG. 33). […] Acyclovir (the standard of care for severe HSV-1 infections) was also added as a control at the same molar ratio.
In general terms: A flow cytometer gives signals particle by particle.

Data set [6] relates to complement-mediated hemolysis of transfused huRBCs. As to the kind of experiment: AIHTR Wistar rat model, 15% xenotransfusion of human RBCs. Format: in vivo. As to conditions: CVF 130 μg I.P. 24 hours prior to transfusion.
Experimental: This process generates 1 ml huRBCs at 80% hematocrit, which was given as a 15% transfusion to the rats.
Using weight-based doses of ketamine and acepromazine, animals were sedated throughout the course of the experiment with periodic monitoring of vital signs. Blood samples were collected into EDTA microtainer tubes (BD) from the animals prior to the huRBC transfusion and then at 30 seconds, 5 minutes, 20 minutes, 60 minutes and 120 minutes after the huRBC transfusion. […] These samples were kept shaking at room temperature prior to processing and centrifuged at 2655×g for five minutes to separate out the plasma and sediment the RBCs. Plasma was aliquoted and the RBC pellet was processed separately as described below. Upon completion of the final (120 minutes or 360 minutes) blood draw, the animal was euthanized using Fatal Plus (Vortech).
Plasma generated from the above experiments was analyzed for the free hemoglobin using spectrophotometry, as described previously (Shah et al. “Clinical hypothermia temperatures increase complement activation and cell destruction via the classical pathway.” J Transl Med 2014; 12:181.).
The subject of data set [7] is hypoxic ischemic brain injury. Format: in vivo, Wistar rat.
Where [8] appears, read: 40 mg [160 mg/kg] i.v., 48 Hr, n = 8.
Where [9] appears, read: 40 mg [160 mg/kg] i.v., Day14, n = 10.

As for `CC[C@H](C)[C@H](N)C(=O)N[C@@H](C)C(=O)N[C@@H](CC(C)C)C(=O)N[C@H](C(=O)N[C@@H](CC(C)C)C(=O)N[C@@H](CCC(=O)O)C(=O)N1CCC[C@H]1C(=O)N[C@H](C(=O)N[C@@H](CS)C(=O)N[C@@H](CS)C(=O)N[C@@H](CCC(N)=O)C(=O)N[C@@H](CCC(=O)O)C(=O)N[C@@H](CCCNC(=N)N)C(=O)N[C@@H](C)C(=O)N[C@@H](C)C(=O)NCCOCCOCCOCCOCCOCCOCCOCCOCCOCCOCCOCCOCCOCCOCCOCCOCCOCCOCCOCCOCCOCCOCCOCCOCCC(=O)O)[C@@H](C)CC)[C@@H](C)CC` [PA-dPEG24], the “toxicity in CV-1 cells” value in data set [1] was “minimal toxicity”. For the same molecule, in data set [2], the “solubility in water / aqueous solutions” value is reported as “soluble in water”. The Solubility in water result in data set [2] (Table 6, PEGylated PA peptides) is reported as “Yes”. Besides, the Solubility in water entry in data set [2] (Table 7, PEGylated and sarcosine/alanine substitution peptides) is “Yes”. In addition, the “blood chemistry assay results (CBC, superchem, coagulation)” value in data set [3] (40 mg [160 mg/kg] i.v.) is “no differences between pretreatment, day 3 or day 14 values”. Further, the organ histology entry in data set [3] (40 mg [160 mg/kg] i.v., day 3 and day 14) is “no histological evidence for toxicity in any organ”. Moreover, the single-dose toxicological evaluation entry in data set [3] (rat, in vivo) is recorded as “no safety concerns”. In data set [3] (setting [8]), the ALT is 62.8 (±4.0) U/L, the AST is recorded as 108 (±26) U/L, the AlkPhos was 104 (±19) U/L and the BUN was 17.8 (±3.2) mg/dL. Also, in data set [3] (setting [8]), the Bilirubin is on record as 0.1 (±0) mg/dL, the CPK was 538 (±128) U/L, the Creatinine is on record as 0.3 (±0) mg/dL and the GGT is recorded as 1.0 (±0) U/L. Further, in data set [3] (setting [8]), the Lipase is 11.8 (±1.5) U/L, the Platelets is reported as 987 (±93) 10^3/μL, the RBC is recorded as 5.8 (±0.5) 10^6/μL and the WBC is listed as 6.0 (±3.0) 10^3/mL. In data set [3] (setting [9]), the ALT is listed as 77.4 (±13.9) U/L, the AST is recorded as 111 (±14) U/L, the AlkPhos is given as 115 (±56) U/L and the BUN is 13.2 (±1.9) mg/dL. Further, in data set [3] (setting [9]), the Bilirubin is on record as 0.1 (±0) mg/dL, the CPK is recorded as 592 (±163) U/L, the Creatinine was 0.3 (±0) mg/dL and the GGT is 1.1 (±0.4) U/L. Moreover, in data set [3] (setting [9]), the Lipase is listed as 6.4 (±1.3) U/L, the Platelets is reported as 825 (±229) 10^3/μL, the RBC is given as 6.6 (±0.4) 10^6/μL and the WBC is given as 7.3 (±2.5) 10^3/mL. Moreover, the organ histology entry in data set [4] (brain, heart, lungs, liver, spleen, kidneys, pancreas) was “Normal histology”. Further, the “blood work (CBC and complete blood chemistry)” value in data set [4] (first 24 hours, 48 hours, day 7 or day 14) is “No toxicities”. In data set [4] (48 Hr), the ALT is 44.0 (±10.4) U/L, the AST is 69.0 (±8.7) U/L, the AlkPhos is 194 (±29) U/L and the BUN is reported as 15.8 (±2.1) mg/dL. Also, in data set [4] (48 Hr), the Bilirubin is 0.1 (±0) mg/dL, the CPK is 142 (±47) U/L, the Creatinine was 0.3 (±0) mg/dL and the GGT is 1 (±0) U/L. Besides, in data set [4] (48 Hr), the Lipase is listed as 10.3 (±1.5) U/L, the Platelets is given as 1045 (±156) 10^3/μL, the RBC is 5.3 (±0.3) 10^6/μL and the WBC was 10.5 (±2.9) 10^3/mL. In data set [4] (Day7), the ALT was 76.3 (±10.9) U/L, the AST is given as 84.3 (±6.74) U/L, the AlkPhos was 147 (±34) U/L and the BUN was 13.5 (±1.64) mg/dL. Also, in data set [4] (Day7), the Bilirubin is given as 0.1 (±0) mg/dL, the CPK is listed as 316 (±90) U/L, the Creatinine was 0.4 (±0.1) mg/dL and the GGT is 1 (±0) U/L. For the same molecule, in data set [4] (Day7), the Lipase is recorded as 8.5 (±1.05) U/L, the Platelets is given as 623 (±417) 10^3/μL, the RBC is recorded as 5.8 (±0.5) 10^6/μL and the WBC is 5.4 (±1.12) 10^3/mL. Moreover, in data set [4] (Day14), the ALT is 55.8 (±5.6) U/L, the AST is 104 (±15) U/L, the AlkPhos was 154 (±42) U/L and the BUN is given as 14.7 (±1.0) mg/dL. For the same molecule, in data set [4] (Day14), the Bilirubin is 0.1 (±0) mg/dL, the CPK is listed as 580 (±172) U/L, the Creatinine is on record as 0.4 (±0.1) mg/dL and the GGT is reported as 1 (±0) U/L. For the same molecule, the Lipase in data set [4] (Day14) is 9.7 (±2.0) U/L.

For `Nc1nc2c(ncn2COCCO)c(=O)[nH]1` [Acyclovir, reference compound], the “toxicity in CV-1 cells” value in data set [1] is reported as “minimal toxicity”. The “inhibition of HSV-1 infection / replication” value in data set [5] is recorded as “never able to completely inhibit replication”.

Regarding cobra venom factor [CVF], in data set [6], the “free hemoglobin in rat plasma” value is “low levels of free hemoglobin”. Besides, in data set [7] (CVF injection before ligation/hypoxia), the brain injury entry was “almost completely attenuated brain injury”. Also, the systemic complement activity entry in data set [7] (CVF injection, for 72 hours after injection) is reported as “almost completely eliminated”.

These data come from US10005818B2, “Derivative peptide compounds and methods of use” (REALTA HOLDINGS, LLC, priority 2010, dated 2018).
